From PubChem BioAssay AID1959 (Broad Institute, 2009) come the findings set out here.

The source made the active and inactive calls.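 How the source made its calls: active means growth-inhibition EC50 no more than tenfold above the top tested dose; inconclusive means flat fit between 30% and 70% inhibition, or unreliable fit; inactive means EC50 more than tenfold above the top tested dose.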

As usually defined, the EC50 is the concentration at which the effect is half-maximal.

This assay has as its system E. coli NEB5alpha growth, BacTiter-Glo luminescence, 4 h. Put plainly: Escherichia coli growth inhibition, dose response, counter-screen for MEX-5/POS-1 RNA-binding inhibitor project, luminescence, NEB5alpha (AID 1959).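 Further: pUC19-transformed ampicillin-resistant cells grown in LB with ampicillin.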
On to `CCNC(=S)N(C)CCc1cc2c(c(OC)c1C=C1C(=O)N(C)C(=O)N(C)C1=O)OCO2`, for which the EC50 is > 11 µM (inactive).

`COC/C=C/C1=CC2=CC(=O)C(C)(OC(=O)c3cccs3)C(=O)C2=CO1` (stereo not drawn): the EC50 is > 11 µM (inactive). `O=C(N/N=C/c1c(O)n(Cc2ccc(F)cc2)c(=O)[nH]c1=O)c1ccccc1O`: the EC50 was > 11 µM (inactive). With `Cc1ccc(-c2ccc(CCC(=O)O)n2-c2cccc(C(=O)O)c2)cc1` the figure was > 11 µM (inactive). With `OCCCNc1ncnc2sc3c(c12)CCN(Cc1ccccc1)C3` the figure was > 11 µM (inactive); with `CCc1ccc(/C=C2\Oc3c(ccc(O)c3CN3CCN(CCO)CC3)C2=O)cc1`, > 11 µM (inactive). With `C=Cc1c(C)c2cc3[nH]c(cc4nc(cc5nc(cc1[nH]2)C(C)=C5CCC(=O)O)C(CCC(=O)O)=C4C)c(C)c3C=C` the figure was > 11 µM (inactive); with `Oc1ccc(N=Nc2ccccc2-c2nn[nH]n2)c(O)c1`, > 11 µM (inactive); with `COc1ccc(-c2onc3ccc(C(C)=O)cc23)cc1`, > 11 µM (inactive). `COc1cc(C2C(C#N)=C(N)OC3=C2C(=O)CC(C)(C)C3)ccc1OCCN1CCOCC1` (stereo not drawn): the EC50 was > 11 µM (inactive). Turning to `COC(=O)/C=C1\C(=O)N(c2nc3ccccc3s2)C(=S)N1c1ccc(F)cc1`, the EC50 is > 11 µM (inactive). Turning to `CCN(CC)c1ccc(N=Cc2c(O)n(Cc3ccccc3)c(=O)[nH]c2=O)cc1`, the EC50 is > 11 µM (inactive). For the compound `COc1ccc(-c2nc(CS(=O)CC(=O)NCc3ccccn3)c(C)o2)cc1` (stereo not drawn), the EC50 is > 11 µM (inactive). With `Cc1ccc(Cl)c2c1=NC(=O)C=2c1[nH]c(=S)[nH]c1O` the figure was > 11 µM (inactive). With `COc1ccc(N2C(=O)NC(=O)/C(=C\c3cn(C)c4ccccc34)C2=O)cc1` the figure was > 11 µM (inactive); with `CCCCC1=CC2=C(c3ccco3)C(=O)C(C)(OC(=O)c3ccc(OC)cc3)C(=O)C2=CN1C1CC1` (stereo not drawn), > 11 µM (inactive). `CC1(C)CC(=O)C2=C(C1)OC(N)=C(C#N)C2c1cc2c(cc1[N+](=O)[O-])OCO2` (stereo not drawn): the EC50 is > 11 µM (inactive). The figure for `COc1ccc2c(c1)C1C=CCC1C(c1cc3c(cc1Br)OCO3)N2` (stereo not drawn) is > 11 µM (inactive). `CCOc1ccc(N2C(=O)S/C(=C\c3cccn3C)C2=O)cc1`: the EC50 was > 11 µM (inactive). As to `CC(=O)c1ccc2c(c1)C1C=CCC1C(c1ccncc1)N2` (stereo not drawn), the EC50 is > 11 µM (inactive). Turning to `O=S(=O)(Nc1ccc(O)c2ccccc12)c1ccc(Br)cc1`, the EC50 was > 11 µM (inactive). Turning to `COc1ccc(/C=C2/N=C(c3cccs3)OC2=O)cc1OC(C)C`, the EC50 was > 11 µM (inactive). With `Nc1c(C(=O)Nc2nc3ccccc3s2)sc2nc(-c3cccs3)ccc12` the figure was > 11 µM (inactive). For `Nc1cc(C(=O)O)c(N)c2c1C(=O)c1ccccc1C2=O`, the EC50 was > 11 µM (inactive). With `Cc1c(C(=O)O)cccc1-n1c(C)cc(/C=C2\C(=O)NC(=O)N(c3ccc4c(c3)OCO4)C2=O)c1C` the figure was > 11 µM (inactive); with `CC(=O)Nc1ccc(NC(=O)C(C)OC(=O)/C(C#N)=C/c2ccc(N(C)C)cc2)cc1` (stereo not drawn), > 11 µM (inactive). Take `O=C(O)c1cc(Cl)c2c(c1)[C@@H]1C=CC[C@@H]1[C@H](c1ccc(S(=O)(=O)N3CCOCC3)cc1)N2`: the EC50 was > 11 µM (inactive). With `C=CCN1C(=O)NC(=O)/C(=C/c2ccc(OCC(=O)Nc3ccc(C)cc3)cc2)C1=O` the figure was > 11 µM (inactive); with `CCN(CC)c1nc(-c2nn[nH]n2)nc(N(CC)CC)n1`, > 11 µM (inactive); with `COC(=O)Cn1cc(/C=C2\C(=O)NC(=O)N(c3ccc(OC)cc3)C2=O)c2ccccc21`, > 11 µM (inactive). With `COc1ccc(P2(=O)Nc3ccccc3N2)cc1` the figure was > 11 µM (inactive); with `CSc1nnc(SCc2nc3sc(C(=O)O)c(C)c3c(=O)[nH]2)s1`, > 11 µM (inactive). In the case of `NS(=O)(=O)c1ccc2c(c1)C1C=CCC1C(C1CC=CCC1)N2` (stereo not drawn), the EC50 was > 11 µM (inactive). The figure for `Oc1ccc(/C=N/NC(=S)Nc2cccnc2)c(O)c1O` is > 11 µM (inactive); for `COc1cc(C2C(C#N)=C(N)OC3=C2C(=O)CC(C)(C)C3)cc([N+](=O)[O-])c1O` (stereo not drawn) it is > 11 µM (inactive). In the case of `O=C(N/N=C/c1c(O)n(CCc2ccccc2)c(=O)[nH]c1=O)c1ccccc1`, the EC50 is > 11 µM (inactive). On to `O=C1C2CC=C(Cl)CC2C(=O)N1CC1Cc2ccccc2CO1` (stereo not drawn), for which the EC50 is > 11 µM (inactive). The figure for `CCOC(=O)C1=C(O)/C(=C/c2cn(CC(=O)N3CCCC3)c3ccccc23)SC1=Nc1ccccc1` is > 11 µM (inactive).

Regarding `CC1=NN(c2cccc(C(=O)O)c2)C(=O)/C1=C\C=C\c1ccco1`, the EC50 was > 11 µM (inactive). Turning to `CCCCN1C(=O)/C(=C2/Sc3ccc(OC)cc3N2CC)SC1=S`, the EC50 was > 11 µM (inactive). As for `Nc1c(C(=O)N/N=C/c2cccnc2)oc2nc(-c3ccccc3)cc(-c3ccco3)c12`, the EC50 was > 11 µM (inactive). As to `CCCN1CCc2cccc3c2[C@H]1Cc1ccc(O)c(O)c1-3`, the EC50 was > 11 µM (inactive). As to `CCC(=O)OC1(C)C(=O)C=C2C=C(c3ccc(C#N)cc3)OC=C2C1=O` (stereo not drawn), the EC50 is > 11 µM (inactive). The figure for `CC1(C)CC(=O)C2=C(C1)OC(N)=C(C#N)C2c1ccccc1OC(=O)N1CCOCC1` (stereo not drawn) is > 11 µM (inactive); for `Oc1ccc(C2=CSC3=NCCN23)cc1O` it is > 11 µM (inactive); for `Cc1nc2sc(-c3ccccc3)cc2c(=O)n1N` it is > 11 µM (inactive). With `CCOC(=O)c1cc2c(=O)n3ccccc3nc2n(C(C)C)c1=NC(=O)c1ccncc1` the figure was > 11 µM (inactive); with `COc1ccc(C2=CC3=CC(=O)C(C)(O)C(=O)C3=CO2)cc1` (stereo not drawn), > 11 µM (inactive).

In the case of `COc1ccccc1C1C(C(C)=O)=C(C)N=c2s/c(=C\c3cc(OC)c(OC)c(OC)c3)c(=O)n21` (stereo not drawn), the EC50 is > 11 µM (inactive).

`[O-]/C(=C(\C(=S)NCc1ccco1)[n+]1ccccc1)c1ccccc1Br`: the EC50 is > 11 µM (inactive). In the case of `CN1CCc2c(sc3c2C(=O)NC(c2ccccn2)N3)C1` (stereo not drawn), the EC50 is > 11 µM (inactive). As to `COc1ccc(C2C(C#N)=C(N)OC3=C2C(=O)CCC3)c(OC)c1OC` (stereo not drawn), the EC50 was > 11 µM (inactive).

For `CCOCCCn1c(=NC(=O)c2cccs2)c(C#N)cc2c(=O)n3cccc(C)c3nc21`, the EC50 was > 11 µM (inactive).

On to `COc1cc(/C=C2/N=C(c3ccccc3)OC2=O)c(F)cc1OCc1ccccc1`, for which the EC50 is > 11 µM (inactive).

Turning to `O=C(NCc1cccs1)C1CCN(S(=O)(=O)c2ccc(Br)s2)CC1`, the EC50 was > 11 µM (inactive).

Take `C/C(=N\NC(=O)c1nnn(-c2nonc2N)c1-c1cccs1)c1cccc(O)c1`: the EC50 is > 11 µM (inactive). Take `Cc1c(/C=N/NC(=O)c2cc(=O)[nH]c(=O)[nH]2)c2ccccn2c1C(=O)c1ccccc1`: the EC50 was > 11 µM (inactive). As for `CCOP(=O)(OCC)C(Nc1cccc([N+](=O)[O-])c1)c1ccccc1` (stereo not drawn), the EC50 was > 11 µM (inactive). For the compound `Nc1cccc2c1C(=O)N(c1ccccc1)C2=O`, the EC50 was > 11 µM (inactive). Turning to `COc1ccc(CNC(=O)c2cnc3cc(C)ccn3c2=O)cc1`, the EC50 is > 11 µM (inactive).

`Cn1c(=O)c2[nH]c(N/N=C(/C#N)C(N)=O)nc2n(C)c1=O`: the EC50 is > 11 µM (inactive). For `Cc1ccc(S(=O)(=O)Nc2ccccc2F)cc1C(=O)NNC(=O)c1ccccc1O`, the EC50 is > 11 µM (inactive). With `CCOC(=O)c1c(NC(=O)CC2Nc3ccccc3NC2=O)sc(C)c1C` (stereo not drawn), the EC50 is > 11 µM (inactive).

Turning to `O=C(CC1Nc2ccccc2NC1=O)Nc1cc(Cl)cc(Cl)c1` (stereo not drawn), the EC50 was > 11 µM (inactive).

For the compound `CCOC(=O)c1c2ccc(OCC(=O)N/N=C/c3ccc(C)cc3)cc2n2ccccc12`, the EC50 is > 11 µM (inactive). `Cc1cc(/C=C2\C(=O)NC(=O)N(Cc3ccccc3)C2=O)c(C)n1C1CC1`: the EC50 is > 11 µM (inactive).

As to `CC1(C)c2[nH]c3ccccc3c2C[C@@H]2C(=O)N(c3ccc(F)cc3F)C(=O)N21`, the EC50 was > 11 µM (inactive). The figure for `COc1ccc(-n2nc3c(=O)[nH][nH]c3cc2=O)cc1` is > 11 µM (inactive). `OC(C#Cc1ccccn1)c1cccs1` (stereo not drawn): the EC50 was > 11 µM (inactive). The figure for `CCN(CC)c1ccc(/C=C(/C#N)c2nc3ccccc3[nH]2)c(OC(C)C)c1` is > 11 µM (inactive). With `N=c1c(C(=O)NCCN2CCOCC2)cc2c(=O)n3ccccc3nc2n1CCc1ccccc1` the figure was > 11 µM (inactive); with `O=C(O)c1ccccc1N(c1ccccc1)c1ccccc1`, > 11 µM (inactive). Turning to `CCN1CCN(Cc2c(C(=O)N/N=C(\C)c3ccc(Cl)cc3)nnn2-c2nonc2N)CC1`, the EC50 was > 11 µM (inactive). As to `Cc1ccc(Sc2ccc(C=C3C(=O)N(C)C(=O)N(C)C3=O)o2)cc1`, the EC50 is > 11 µM (inactive). The figure for `CC1(OC(=O)C2CCCC2)C(=O)C=C2C=C(C3CC3)OC=C2C1=O` (stereo not drawn) is > 11 µM (inactive); for `Oc1ccc(C2C[C@H]3CC[C@@H]2C3)cc1O` (stereo partly drawn) it is > 11 µM (inactive). Consider `C=CCN1C(=O)NC(=O)/C(=C/C=C/c2ccccc2)C1=O`, for which the EC50 was > 11 µM (inactive). The figure for `Cc1cccc2cc3c(N)c(C(=O)Nc4ccc(N5CCOCC5)cc4)sc3nc12` is > 11 µM (inactive). For `COC(=O)c1cccc(-n2c(C)cc(C=O)c2C)c1C`, the EC50 was > 11 µM (inactive). For the compound `COc1ccc(/C=C2\CCCc3c2nc2ccccc2c3C(=O)O)cc1OC`, the EC50 is > 11 µM (inactive). With `COC(=O)c1c(Cl)c2n3ccccc3c(C)c(-c3ccccc3)c-2c1C(=O)OC` the figure was > 11 µM (inactive); with `O=C(O)c1ccc(S(=O)(=O)/N=C2\C=C(Nc3ccccc3F)C(=O)c3ccccc32)cc1`, > 11 µM (inactive). As for `COc1ccc(C2c3cc(OC)c(OC)cc3CCN2S(C)(=O)=O)cc1OC` (stereo not drawn), the EC50 was > 11 µM (inactive).
